This is an account of results in patent US12152035B2, “Androgen receptor binding molecule and use thereof” (Industrial Technology Research Institute, priority 2020, dated 2024).

For one data set, the system named is CWR22RV1 cells. Briefly: Cytotoxicity assay (AlamarBlue, 72 hours). Format: cell-based. The settings on record: 72 hours treatment, concentration not given. The procedure, abridged:
(§1)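 CWR22Rv1 or VCaP cells in RPMI-1640 with 10% FBS were seeded at 1×10^4 cells/well. Next day they were treated with compound, test samples at 100, 10, 1 and 0.1 μM, giving 1% DMSO final. After 72 h, AlamarBlue was added for 4 h, fluorescence was read at Ex/Em 560/590 nm, and % cytotoxicity was calculated.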
In general terms: The colour change of resazurin is a common sign of viable cells or microbes.

In a further data set the test system is VCaP cells. Nature of the data set: Cytotoxicity assay (AlamarBlue, 72 hours). The class given is cell-based. Conditions: 72 hours treatment, concentration not given. The gist of the method:
as §1

Data set [1] has as its system full-length androgen receptor. Nature of the data set: Western blot: degradation of full-length androgen receptor in CWR22RV1 cells. The class given is cell-based. Conditions: overnight. The gist of the method:
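CWR22Rv1 cells (5×10^5 per well) seeded overnight in RPMI with 10% FBS at 37 °C, 5% CO2, then given fresh medium and compound at various concentrations overnight. Lysates analysed by Western blot for full-length AR and AR-V7, with GAPDH as loading control.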
(In western blotting, separated proteins are transferred to a membrane and probed.)

Data set [2] concerns CWR22Rv1 cells or VCaP cells. Nature of the data set: Xenograft tumor growth in SCID mice. The settings on record: 5 or 30 mg/kg, IP, BID. The class given is in vivo, Male SCID mice. The procedure:
Mice: Male SCID mice (CB17/Icr-Prkdcscid/IcrIcoCrlBltw, 4-6 weeks old, purchased from BioLASCO Taiwan Co., Ilan, Taiwan.)
The cells were harvested when CWR22Rv1 cells or VCaP cells were cultured to exponential growth phase, and then the cells were washed twice with PBS. Then, for CWR22Rv1 cells, 5×10^6 cells were suspended in 100 μL PBS containing 33% Matrigel to form a cell suspension; for VCaP cells, 3×10^6 cells were suspended in 100 μL PBS containing 50% Matrigel to form a cell suspension cell suspension. Then, the above cell suspension was subcutaneously implanted into the right back of male SCID mice with a 25G needle.
After cell inoculation, when the average tumor volume reached […] or the tumor clearly began to grow, the mice were divided into a vehicle-treated group (n=4-8), 5 mg/kg Compound 1 treated group (n=4-8) and 30 mg/kg Compound 1 treatment group (n=4-8), and administered by intraperitoneal injection (IP), twice daily (BID). The vehicle was 10% N-methylpyrrolidone (NMP, N-Methyl-2-pyrrolidone) and 20% castor oil polyoxyethylene ether (Cremophor EL) in PBS buffer solution. Tumor volume and animal body weight were determined three times a week after dosing.
Tumor size was measured with a caliper and converted to tumor volume (cm^3; V) using the formula: V=0.5×[Length×(Width)^2]
Antitumor activity was expressed as tumor growth inhibition (TGI). […]

[3] abbreviates: compound concentration 0.1 (unit not given).
The mark [4] stands for this setting: compound concentration 1 (unit not given).
The mark [5] stands for this setting: compound concentration 10 (unit not given).

Turning to `Cc1ncsc1-c1ccc(CNC(=O)[C@@H]2C[C@H](O)CN2C(=O)[C@@H](NC(=O)COCCCCOc2ccc(C3CCN(C4=Nn5c(nnc5C(F)(F)F)CC4)CC3)cc2)C(C)(C)C)cc1` [Compound 1, (2S,4S)-1-((S)-3,3-dimethyl-2-(2-(4-(4-(1-(3-(trifluoromethyl)-7,8-dihydro-[1,2,4]triazolo[4,3-b]pyridazin-6-yl)piperidin-4-yl)phenoxy)butoxy)acetamido)butanoyl)-4-hydroxy-N-(4-(4-methylthiazol-5-yl)benzyl)pyrrolidine-2-carboxamide], the “Cytotoxicity, CWR22RV1 cells (cell viability %)” value with CWR22RV1 cells was “+++ (<40% : +++)”. Further, in the data set with VCaP cells, the “Cytotoxicity, VCaP cells (cell viability %)” value is “+++ (<40% : +++)”. In addition, the “Degradation ability for full-length androgen receptor (residual rate %)” value (from here on “Degradation ability … (residual rate %)”) in data set [1] (setting [3]) is on record as “+ (60-80%: +)”; in data set [1] (setting [4]) it was “+ (60-80%: +)”; in data set [1] (setting [5]) it was “+++ (<40%: +++)”. In addition, in data set [2], the “Increase in tumor size compared to vehicle treatment” value is listed as “tends to slow down”.

On to `O=C1CCC(N2C(=O)c3cccc(NCC(=O)N4CCC(N5CCC(C#Cc6ccc(C(=O)Nc7ccc(C8CCN(C9=Nn%10c(nnc%10C(F)(F)F)CC9)CC8)cc7)nc6)CC5)CC4)c3C2=O)C(=O)N1` (stereo not drawn) [Compound 51, 5-((1′-((2-(2,6-dioxopiperidin-3-yl)-1,3-dioxoisoindolin-4-yl)glycyl)-[1,4′-bipiperidin]-4-yl)ethynyl)-N-(4-(1-(3-(trifluoromethyl)-7,8-dihydro-[1,2,4]triazolo[4,3-b]pyridazin-6-yl)piperidin-4-yl)phenyl)picolinamide], for which the “Cytotoxicity, CWR22RV1 cells (cell viability %)” value in the data set with CWR22RV1 cells is on record as “+++ (<40% : +++)”. Besides, in the data set with VCaP cells, the “Cytotoxicity, VCaP cells (cell viability %)” value was “+++ (<40% : +++)”. Further, the results for the “Degradation ability … (residual rate %)” value in data set [1] (setting [3]), in data set [1] (setting [4]) and in data set [1] (setting [5]) were “− (>80%; −)”, “− (>80%; −)” and “+ (60-80%: +)”, respectively.

Consider `CC1(C)C(NC(=O)c2ccc(C#CC3CCN(C4CCN(C(=O)CNc5cccc6c5C(=O)N(C5CCC(=O)NC5=O)C6=O)CC4)CC3)cc2)C(C)(C)C1OC1=Nn2c(nnc2C(F)(F)F)CC1` (stereo not drawn) [Compound 52, 4-((1′-((2-(2,6-dioxopiperidin-3-yl)-1,3-dioxoisoindolin-4-yl)glycyl)-[1,4′-bipiperidin]-4-yl)ethynyl)-N-((1r,3r)-2,2,4,4-tetramethyl-3-((3-(trifluoromethyl)-7,8-dihydro-[1,2,4]triazolo[4,3-b]pyridazin-6-yl)oxy)cyclobutyl)benzamide], for which the “Cytotoxicity, CWR22RV1 cells (cell viability %)” value in the data set on CWR22RV1 cells is “+++ (<40% : +++)”. Moreover, the “Cytotoxicity, VCaP cells (cell viability %)” value in the data set with VCaP cells is reported as “+++ (<40% : +++)”. For the same compound, the “Degradation ability … (residual rate %)” value in data set [1] (setting [3]) is given as “− (>80%; −)”; in data set [1] (setting [4]), “++ (40-60%: ++)”; in data set [1] (setting [5]), “++ (40-60%: ++)”.

Regarding `Cc1ncsc1-c1ccc(CNC(=O)[C@@H]2C[C@H](O)CN2C(=O)[C@@H](NC(=O)COCCCCOc2ccc(C(=O)NC3C(C)(C)C(Oc4ccc5nnc(C(F)(F)F)n5n4)C3(C)C)cc2)C(C)(C)C)cc1` (stereo partly drawn) [Compound 53, 1-(3,3-dimethyl-2-(2-(4-(4-(((1r,3r)-2,2,4,4-tetramethyl-3-((3-(trifluoromethyl)-[1,2,4]triazolo[4,3-b]pyridazin-6-yl)oxy)cyclobutyl)carbamoyl)phenoxy)butoxy)acetamido)butanoyl)-4-hydroxy-N-(4-(4-methylthiazol-5-yl)benzyl)pyrrolidine-2-carboxamide], in the data set with CWR22RV1 cells, the “Cytotoxicity, CWR22RV1 cells (cell viability %)” value is reported as “+++ (<40% : +++)”. Moreover, the “Cytotoxicity, VCaP cells (cell viability %)” value with VCaP cells is listed as “+++ (<40% : +++)”. Besides, the “Degradation ability … (residual rate %)” value in data set [1] (setting [3]) was “− (>80%; −)”; in data set [1] (setting [4]) it was “+++ (<40%: +++)”; in data set [1] (setting [5]), “+++ (<40%: +++)”.
